What was measured:
[1] = target: Aurora kinase B (Homo sapiens) (UniProt Q96GD4); conditions: Compound concentration 100.0 nM
[2] = target: Muscle, skeletal receptor tyrosine-protein kinase (Homo sapiens) (UniProt O15146); conditions: Compound concentration 100.0 nM
[3] = target: STE20/SPS1-related proline-alanine-rich protein kinase (Homo sapiens) (UniProt Q9UEW8); conditions: Compound concentration 100.0 nM
[4] = target: Serine/threonine-protein kinase PAK 3 (Homo sapiens) (UniProt O75914); conditions: Compound concentration 100.0 nM
Sequence of Serine/threonine-protein kinase PAK 3 (Homo sapiens) (O75914 whole entry, looked up): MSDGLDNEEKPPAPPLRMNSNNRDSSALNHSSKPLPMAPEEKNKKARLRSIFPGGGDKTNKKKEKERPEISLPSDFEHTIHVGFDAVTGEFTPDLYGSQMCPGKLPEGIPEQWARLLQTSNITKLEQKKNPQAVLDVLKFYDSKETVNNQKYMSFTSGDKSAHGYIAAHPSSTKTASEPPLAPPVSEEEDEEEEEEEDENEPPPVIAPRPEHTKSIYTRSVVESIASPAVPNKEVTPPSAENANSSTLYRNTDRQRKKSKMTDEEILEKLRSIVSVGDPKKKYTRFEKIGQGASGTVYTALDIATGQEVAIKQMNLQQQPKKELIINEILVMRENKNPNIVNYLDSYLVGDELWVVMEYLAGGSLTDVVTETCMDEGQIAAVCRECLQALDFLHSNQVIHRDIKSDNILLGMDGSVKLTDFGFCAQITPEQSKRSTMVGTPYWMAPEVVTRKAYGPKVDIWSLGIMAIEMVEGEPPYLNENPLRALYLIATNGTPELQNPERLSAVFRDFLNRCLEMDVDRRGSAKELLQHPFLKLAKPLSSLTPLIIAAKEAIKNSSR

[5] = target: Tyrosine-protein kinase Lyn (Homo sapiens) (UniProt P07948); conditions: Compound concentration 100.0 nM
Sequence of Tyrosine-protein kinase Lyn (Homo sapiens) (P07948 2-512 limits assumed): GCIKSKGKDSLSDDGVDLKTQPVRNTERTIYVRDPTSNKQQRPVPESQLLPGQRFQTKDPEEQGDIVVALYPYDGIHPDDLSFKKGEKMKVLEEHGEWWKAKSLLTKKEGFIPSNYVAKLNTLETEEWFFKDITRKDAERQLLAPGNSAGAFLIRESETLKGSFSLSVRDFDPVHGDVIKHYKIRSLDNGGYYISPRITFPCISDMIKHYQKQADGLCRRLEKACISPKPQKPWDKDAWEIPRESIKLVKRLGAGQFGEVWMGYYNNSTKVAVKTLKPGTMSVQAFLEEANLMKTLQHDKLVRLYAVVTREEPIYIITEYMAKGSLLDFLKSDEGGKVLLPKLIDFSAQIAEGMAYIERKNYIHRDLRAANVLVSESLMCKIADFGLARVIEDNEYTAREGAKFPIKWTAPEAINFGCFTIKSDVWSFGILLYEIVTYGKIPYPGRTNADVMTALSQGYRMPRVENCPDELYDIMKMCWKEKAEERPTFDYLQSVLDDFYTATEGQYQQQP

[6] = target: Maternal embryonic leucine zipper kinase (Homo sapiens) (UniProt Q14680); conditions: Compound concentration 100.0 nM
[7] = target: Cyclin-dependent kinase 7 (Homo sapiens) (UniProt P50613); conditions: Compound concentration 100.0 nM
[8] = target: Serine/threonine-protein kinase/endoribonuclease IRE1 (Homo sapiens) (UniProt O75460); conditions: Compound concentration 100.0 nM
[9] = target: Bone morphogenetic protein receptor type-1A (Homo sapiens) (UniProt P36894); conditions: Compound concentration 100.0 nM
[10] = target: Serine/threonine-protein kinase Nek4 (Homo sapiens) (UniProt P51957); conditions: Compound concentration 100.0 nM
[11] = target: Ephrin type-B receptor 4 (Homo sapiens) (UniProt P54760); conditions: Compound concentration 100.0 nM
[12] = target: Ribosomal protein S6 kinase alpha-1 (Homo sapiens) (UniProt Q15418); conditions: Compound concentration 100.0 nM
[13] = target: High affinity 3',5'-cyclic-AMP phosphodiesterase 7A (Homo sapiens, UniProt Q13946); test: Biochemical assay (PDE7A)
[14] = target: Serine/threonine-protein kinase 38-like (Homo sapiens) (UniProt Q9Y2H1); conditions: Compound concentration 100.0 nM
[15] = target: 5-hydroxytryptamine receptor 1E (Homo sapiens) (UniProt P28566); conditions: Compound concentration 10.0 uM
[16] = system: Receptor-type tyrosine-protein kinase FLT3 (Homo sapiens), P36888 [UNDEFINED MUTATION]; conditions: Compound concentration 100.0 nM
[17] = target: Serine/threonine-protein kinase 38 (Homo sapiens) (UniProt Q15208); conditions: Compound concentration 100.0 nM
[18] = target: Inhibitor of nuclear factor kappa-B kinase subunit epsilon (Homo sapiens) (UniProt Q14164); conditions: Compound concentration 100.0 nM
[19] = target: Mitogen-activated protein kinase kinase kinase kinase 4 (Homo sapiens) (UniProt O95819); conditions: Compound concentration 100.0 nM
[20] = target: Cyclin-dependent kinase 11B (Homo sapiens) (UniProt P21127); conditions: Compound concentration 100.0 nM
[21] = target: Tyrosine-protein kinase BTK (Homo sapiens) (UniProt Q06187); conditions: Compound concentration 100.0 nM
[22] = target: Testis-specific serine/threonine-protein kinase 1 (Homo sapiens) (UniProt Q9BXA7); conditions: Compound concentration 100.0 nM
Sequence of Testis-specific serine/threonine-protein kinase 1 (Homo sapiens) (Q9BXA7 whole entry): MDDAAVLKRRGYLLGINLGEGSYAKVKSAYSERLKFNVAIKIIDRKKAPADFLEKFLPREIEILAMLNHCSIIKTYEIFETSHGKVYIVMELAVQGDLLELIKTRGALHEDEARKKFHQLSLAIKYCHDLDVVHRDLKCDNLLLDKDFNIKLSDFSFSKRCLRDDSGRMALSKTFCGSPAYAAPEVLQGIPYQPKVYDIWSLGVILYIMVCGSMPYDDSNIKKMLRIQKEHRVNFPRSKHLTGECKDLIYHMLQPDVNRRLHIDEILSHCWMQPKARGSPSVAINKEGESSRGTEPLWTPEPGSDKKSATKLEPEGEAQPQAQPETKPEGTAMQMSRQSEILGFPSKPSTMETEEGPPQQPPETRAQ

[23] = target: MAP/microtubule affinity-regulating kinase 4 (Homo sapiens) (UniProt Q96L34); conditions: Compound concentration 100.0 nM
Sequence of MAP/microtubule affinity-regulating kinase 4 (Homo sapiens) (Q96L34 whole entry): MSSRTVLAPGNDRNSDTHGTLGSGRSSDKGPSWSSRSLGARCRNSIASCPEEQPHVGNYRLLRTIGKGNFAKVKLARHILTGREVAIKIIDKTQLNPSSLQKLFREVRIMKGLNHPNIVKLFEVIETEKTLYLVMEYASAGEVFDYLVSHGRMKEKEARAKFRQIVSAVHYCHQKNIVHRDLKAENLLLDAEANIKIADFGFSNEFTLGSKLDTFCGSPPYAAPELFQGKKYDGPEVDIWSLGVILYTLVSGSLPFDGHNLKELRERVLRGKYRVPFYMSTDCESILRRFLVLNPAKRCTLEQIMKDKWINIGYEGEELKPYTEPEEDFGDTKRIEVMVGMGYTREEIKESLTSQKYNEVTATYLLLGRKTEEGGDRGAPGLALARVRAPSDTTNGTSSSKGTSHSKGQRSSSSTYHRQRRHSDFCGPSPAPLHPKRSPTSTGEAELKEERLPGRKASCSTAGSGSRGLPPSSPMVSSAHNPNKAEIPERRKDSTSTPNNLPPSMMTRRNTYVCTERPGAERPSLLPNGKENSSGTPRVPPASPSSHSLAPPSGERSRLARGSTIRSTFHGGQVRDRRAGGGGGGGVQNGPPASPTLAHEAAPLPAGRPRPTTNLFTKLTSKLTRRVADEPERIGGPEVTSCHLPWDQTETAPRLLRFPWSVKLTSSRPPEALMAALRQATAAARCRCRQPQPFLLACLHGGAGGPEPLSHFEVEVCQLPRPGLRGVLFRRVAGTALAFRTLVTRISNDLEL

[24] = target: Tyrosine-protein kinase JAK1 (Homo sapiens) (UniProt P23458); conditions: Compound concentration 100.0 nM
[25] = target: Non-receptor tyrosine-protein kinase TYK2 (Homo sapiens) (UniProt P29597); conditions: Compound concentration 100.0 nM
Sequence of Non-receptor tyrosine-protein kinase TYK2 (Homo sapiens) (P29597 whole entry): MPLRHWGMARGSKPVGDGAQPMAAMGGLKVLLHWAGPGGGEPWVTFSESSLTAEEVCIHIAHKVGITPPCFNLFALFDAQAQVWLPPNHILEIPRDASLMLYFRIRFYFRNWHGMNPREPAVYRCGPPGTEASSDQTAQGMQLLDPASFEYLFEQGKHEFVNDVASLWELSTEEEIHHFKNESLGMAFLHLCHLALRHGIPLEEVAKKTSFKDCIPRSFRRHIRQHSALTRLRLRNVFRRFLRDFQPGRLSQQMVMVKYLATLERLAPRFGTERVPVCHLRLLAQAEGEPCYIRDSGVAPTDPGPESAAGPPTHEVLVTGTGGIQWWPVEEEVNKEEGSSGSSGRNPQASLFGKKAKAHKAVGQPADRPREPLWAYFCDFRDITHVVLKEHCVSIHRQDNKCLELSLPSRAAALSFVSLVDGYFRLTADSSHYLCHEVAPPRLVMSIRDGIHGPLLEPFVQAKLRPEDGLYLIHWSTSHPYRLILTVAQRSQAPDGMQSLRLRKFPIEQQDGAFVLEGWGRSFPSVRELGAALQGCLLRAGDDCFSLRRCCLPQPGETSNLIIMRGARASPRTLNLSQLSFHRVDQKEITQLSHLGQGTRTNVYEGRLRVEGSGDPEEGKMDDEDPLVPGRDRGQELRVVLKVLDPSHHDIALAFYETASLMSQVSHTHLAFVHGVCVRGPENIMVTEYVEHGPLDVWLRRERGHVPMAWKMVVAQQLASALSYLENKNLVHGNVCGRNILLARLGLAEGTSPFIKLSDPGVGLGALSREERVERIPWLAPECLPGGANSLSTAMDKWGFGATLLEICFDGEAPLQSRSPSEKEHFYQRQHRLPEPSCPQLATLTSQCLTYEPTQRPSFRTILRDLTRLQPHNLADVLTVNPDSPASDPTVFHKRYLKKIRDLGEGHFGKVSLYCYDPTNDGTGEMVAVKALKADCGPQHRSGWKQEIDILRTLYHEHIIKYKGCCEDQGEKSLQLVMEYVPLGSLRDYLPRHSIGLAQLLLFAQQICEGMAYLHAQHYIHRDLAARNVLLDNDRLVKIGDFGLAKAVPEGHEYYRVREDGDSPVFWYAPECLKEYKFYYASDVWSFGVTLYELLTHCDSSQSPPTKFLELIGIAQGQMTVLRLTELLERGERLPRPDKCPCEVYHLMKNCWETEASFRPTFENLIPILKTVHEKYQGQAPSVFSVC

[26] = system: Mast/stem cell growth factor receptor Kit (Homo sapiens), P10721 [V559D,T670I]; conditions: Compound concentration 100.0 nM
[27] = target: Ephrin type-B receptor 3 (Homo sapiens) (UniProt P54753); conditions: Compound concentration 100.0 nM
[28] = target: Serine/threonine-protein kinase 32C (Homo sapiens) (UniProt Q86UX6); conditions: Compound concentration 100.0 nM
Sequence of Serine/threonine-protein kinase 32C (Homo sapiens) (Q86UX6 whole entry): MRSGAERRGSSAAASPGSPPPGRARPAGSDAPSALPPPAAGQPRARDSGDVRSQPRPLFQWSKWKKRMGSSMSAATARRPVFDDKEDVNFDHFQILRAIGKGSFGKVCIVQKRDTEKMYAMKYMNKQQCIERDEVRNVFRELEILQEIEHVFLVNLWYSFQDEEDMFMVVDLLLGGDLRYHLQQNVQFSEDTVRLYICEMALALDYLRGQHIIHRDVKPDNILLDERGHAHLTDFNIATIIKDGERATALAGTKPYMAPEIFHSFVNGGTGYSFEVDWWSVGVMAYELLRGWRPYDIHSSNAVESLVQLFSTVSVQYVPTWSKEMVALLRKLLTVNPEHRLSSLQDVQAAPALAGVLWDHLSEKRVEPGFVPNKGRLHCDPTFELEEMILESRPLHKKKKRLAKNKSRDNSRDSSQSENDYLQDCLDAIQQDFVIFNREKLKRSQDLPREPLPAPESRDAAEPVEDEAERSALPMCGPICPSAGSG

[29] = system: Proto-oncogene tyrosine-protein kinase receptor Ret (Homo sapiens), P07949 [M918T]; conditions: Compound concentration 100.0 nM
[30] = target: Mitogen-activated protein kinase 13 (Homo sapiens) (UniProt O15264); conditions: Compound concentration 100.0 nM
Sequence of Mitogen-activated protein kinase 13 (Homo sapiens) (O15264 whole entry): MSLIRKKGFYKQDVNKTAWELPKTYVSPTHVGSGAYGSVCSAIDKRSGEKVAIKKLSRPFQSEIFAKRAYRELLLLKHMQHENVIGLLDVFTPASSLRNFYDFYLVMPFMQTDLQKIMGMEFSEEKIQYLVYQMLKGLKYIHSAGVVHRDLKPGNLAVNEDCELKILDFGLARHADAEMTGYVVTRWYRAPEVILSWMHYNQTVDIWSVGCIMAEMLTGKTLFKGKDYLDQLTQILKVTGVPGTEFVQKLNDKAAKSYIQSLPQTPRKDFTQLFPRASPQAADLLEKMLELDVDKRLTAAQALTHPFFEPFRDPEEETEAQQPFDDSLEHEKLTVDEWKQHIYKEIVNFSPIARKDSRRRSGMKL

[31] = target: MAP kinase-activated protein kinase 5 (Homo sapiens) (UniProt Q8IW41); conditions: Compound concentration 100.0 nM
[32] = target: Dual specificity tyrosine-phosphorylation-regulated kinase 2 (Homo sapiens) (UniProt Q92630); conditions: Compound concentration 100.0 nM
[33] = target: Calcium/calmodulin-dependent protein kinase type 1G (Homo sapiens) (UniProt Q96NX5); conditions: Compound concentration 100.0 nM
Sequence of Calcium/calmodulin-dependent protein kinase type 1G (Homo sapiens) (Q96NX5 whole entry): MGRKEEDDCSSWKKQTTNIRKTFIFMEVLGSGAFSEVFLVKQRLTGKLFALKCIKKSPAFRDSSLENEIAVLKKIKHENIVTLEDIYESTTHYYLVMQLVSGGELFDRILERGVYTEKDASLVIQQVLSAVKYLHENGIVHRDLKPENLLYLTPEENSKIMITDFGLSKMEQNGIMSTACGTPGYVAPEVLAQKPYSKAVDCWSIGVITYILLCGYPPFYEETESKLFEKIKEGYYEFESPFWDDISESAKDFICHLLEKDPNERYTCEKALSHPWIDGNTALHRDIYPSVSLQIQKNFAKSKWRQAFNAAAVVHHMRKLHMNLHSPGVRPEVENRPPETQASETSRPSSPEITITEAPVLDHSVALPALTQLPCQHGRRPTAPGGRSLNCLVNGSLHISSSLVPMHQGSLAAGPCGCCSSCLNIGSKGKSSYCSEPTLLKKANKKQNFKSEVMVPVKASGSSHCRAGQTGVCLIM

[34] = target: T1, Muscarinic acetylcholine receptor M2 (Homo sapiens) (UniProt P08172); conditions: Compound concentration 10.0 uM
T1 sequence (whole entry): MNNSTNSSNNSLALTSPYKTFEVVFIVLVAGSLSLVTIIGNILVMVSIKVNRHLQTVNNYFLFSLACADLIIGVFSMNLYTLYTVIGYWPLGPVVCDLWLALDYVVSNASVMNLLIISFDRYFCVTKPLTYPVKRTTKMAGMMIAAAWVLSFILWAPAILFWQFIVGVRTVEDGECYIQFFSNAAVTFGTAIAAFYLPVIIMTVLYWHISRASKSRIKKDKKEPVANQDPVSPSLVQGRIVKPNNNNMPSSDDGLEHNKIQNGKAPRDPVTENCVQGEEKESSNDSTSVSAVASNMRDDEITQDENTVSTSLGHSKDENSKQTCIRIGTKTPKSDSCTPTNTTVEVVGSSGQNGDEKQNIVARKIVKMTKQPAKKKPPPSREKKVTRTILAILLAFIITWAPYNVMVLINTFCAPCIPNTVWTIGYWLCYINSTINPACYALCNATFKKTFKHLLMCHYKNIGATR

[35] = target: Serine/threonine-protein kinase Nek3 (Homo sapiens) (UniProt P51956); conditions: Compound concentration 100.0 nM
[36] = target: Serine/threonine-protein kinase 16 (Homo sapiens) (UniProt O75716); conditions: Compound concentration 100.0 nM
Sequence of Serine/threonine-protein kinase 16 (Homo sapiens) (O75716 whole entry): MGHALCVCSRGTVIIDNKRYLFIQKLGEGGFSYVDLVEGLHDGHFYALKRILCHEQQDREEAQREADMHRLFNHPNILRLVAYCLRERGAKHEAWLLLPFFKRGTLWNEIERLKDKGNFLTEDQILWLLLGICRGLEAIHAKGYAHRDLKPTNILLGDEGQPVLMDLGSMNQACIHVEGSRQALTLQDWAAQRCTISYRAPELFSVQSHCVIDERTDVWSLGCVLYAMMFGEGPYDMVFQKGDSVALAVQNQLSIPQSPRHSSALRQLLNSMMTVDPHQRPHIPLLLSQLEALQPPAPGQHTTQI

[37] = system: Mast/stem cell growth factor receptor Kit (Homo sapiens), P10721 [A829P]; conditions: Compound concentration 100.0 nM
[38] = target: Fibroblast growth factor receptor 4 (Homo sapiens) (UniProt P22455); conditions: Compound concentration 100.0 nM

SMILES	residual activity [1]	residual activity [2]	residual activity [3]	residual activity [4]	residual activity [5]	residual activity [6]	residual activity [7]	residual activity [8]	residual activity [9]	residual activity [10]	residual activity [11]	residual activity [12]	Ki [13]	residual activity [14]	inhibition [15]	residual activity [16]	residual activity [17]	residual activity [18]	residual activity [19]	residual activity [20]	other results
CC(C)CC(=O)N1CCc2nc(-c3ccc(Br)cc3)nc(N(C)Cc3ccccc3)c2C1 [THPP-1-NC]	92%	100%	100%	100%	88%	67%	65%	100%	93%	100%	100%	93%	> 25.3 µM (not active)	95%	-5.76%	92%	100%	100%	84%	100%	residual activity [21]: 100%; residual activity [22]: 99%; residual activity [23]: 100%; residual activity [24]: 71%; residual activity [25]: 100%; residual activity [26]: 95%; residual activity [27]: 100%; residual activity [28]: 98%; residual activity [29]: 100%; residual activity [30]: 100%; residual activity [31]: 100%; residual activity [32]: 84%; residual activity [33]: 100%; inhibition [34]: 18.2%; residual activity [35]: 100%; residual activity [36]: 100%; residual activity [37]: 97%; residual activity [38]: 98%
COCCOc1nc(-c2ccc(Cl)nc2)nc2c1CN(C(=O)c1ncn3ccccc13)CC2 [THPP-1]	97%	100%	100%	100%	73%	65%	77%	100%	82%	100%	100%	100%	11.2 µM (not active)	100%	6.95%	100%	100%	100%	73%	100%	residual activity [21]: 100%; residual activity [22]: 100%; residual activity [23]: 100%; residual activity [24]: 76%; residual activity [25]: 100%; residual activity [26]: 100%; residual activity [27]: 100%; residual activity [28]: 100%; residual activity [29]: 90%; residual activity [30]: 100%; residual activity [31]: 100%; residual activity [32]: 100%; residual activity [33]: 100%; inhibition [34]: 19.3%; residual activity [35]: 100%; residual activity [36]: 100%; residual activity [37]: 88%; residual activity [38]: 90%

Reference: ChEMBL document CHEMBL4507293 (2021)
